In brackets after ≈: the same amount, converted by molar mass. Several values for one entry are separate records, joined by “and”; a condition that tells them apart may be missing. Equal values may be shown once. Where a name gives a salt, the structure may show the parent alone. Read-outs that look alike come from different tables or passages of the source. Bridge positions count the residues as written; N and C are the ends. Square brackets hold non-standard residues; d marks the D form. Peptide text beside a SMILES is read from it. * marks the point of attachment. ξ: configuration not given here. X12 = CC(C)C[C@H](N)[C@H](O)C(=O)*; Thr(3ξ) = CC(O)[C@H](N)C(=O)O; Dab = NCC[C@H](N)C(=O)O
How the values were obtained:
Escherichia coli = test: MIC, compound in combination with a second agent (broth microdilution); assay type: cell-based; settings: 1:1 (wt:wt) combination with Rifampicin, MIC = total drug concentration; for MIC: Escherichia coli
Procedure, shortened: (§1)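 Read-out is the total-drug MIC of a 1:1 weight ratio combination with another agent, e.g. rifampicin. Duplicates within 2-fold gave the lower value; wider spread meant a non-valid assay. Where compounds were tested multiple times, the mode is given.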

Klebsiella pneumoniae = test: as above; assay type: cell-based; settings: 1:1 (wt:wt) combination with Rifampicin, MIC = total drug concentration; for MIC: Klebsiella pneumoniae
Procedure, shortened: as §1

Acinetobacter baumannii = test: as above; assay type: cell-based; settings: 1:1 (wt:wt) combination with Rifampicin, MIC = total drug concentration; for MIC: Acinetobacter baumannii
Procedure, shortened: as §1

Pseudomonas aeruginosa = test: as above; assay type: cell-based; settings: 1:1 (wt:wt) combination with Rifampicin, MIC = total drug concentration; for MIC: Pseudomonas aeruginosa
Procedure, shortened: as §1

P. aeruginosa ATCC27853 = assay type: in vivo, Pseudomonas aeruginosa; settings: ATCC27853, in vivo, iv, 5 mg/kg, 6 h
Experimental: Compounds were administered in solution by intravenous (IV) bolus injection into the lateral tail vein. […] At 1 hour post infection, 4 animals were humanely euthanized using pentabarbitone overdose to provide a pre-treatment control group. At 9 hours post infection, the clinical condition of all animals was assessed prior to them being humanely euthanized by pentabarbitone overdose. Animal weight was determined before both thighs were removed and weighed individually. Individual thigh tissue samples were homogenized in ice cold sterile phosphate buffered saline. Thigh homogenates were then quantitatively cultured onto CLED agar and incubated at 37° C. for 24 hours before colonies were counted.

K. pneumoniae = test: MIC against panel of strains enriched for resistance to colistin or polymyxin B (CLSI), alone or 1:1 with rifampicin; assay type: cell-based, Klebsiella pneumoniae; settings: one value per strain of the panel
Experimental: (§2) […] For example, a well at 2 μg/mL consisted of 1 μg/mL test compound and 1 μg/mL rifampicin.
(§3) • where n indicates the number of strains within the panel for a particular organism.

P. aeruginosa = test: as above; assay type: cell-based, Pseudomonas aeruginosa; settings: one value per strain of the panel
Experimental: as §2, §3

Question: `CC(C)C[C@@H]1NC(=O)[C@@H](Cc2ccccc2)NC(=O)[C@H](CCN)NC(=O)[C@@H](NC(=O)[C@H](CCN)NC(=O)[C@@H](NC(=O)[C@@H](O)[C@@H](N)CC(C)C)C(C)O)CCNC(=O)[C@H](C(C)O)NC(=O)[C@H](CCN)NC(=O)[C@H](CCN)NC1=O` (stereo partly drawn) [Example 41, (2S,3S)-3-Amino-2-hydroxy-5-methylhexanoyl polymyxin B nonapeptide, trifluoroacetate salt] (X12-[Thr(3ξ)][Dab][Dab][Dab][dF]L[Dab][Dab][Thr(3ξ)]; lactam 3-C) was tested. Which “MIC E. coli ATCC25922” value (Escherichia coli; strain ATCC25922) did it give?
Answer: ≤0.06 micrograms/mL

Question: What about the “MIC E. coli NCTC9001” value (Escherichia coli; strain NCTC9001) of the same compound?
Answer: 0.125 micrograms/mL

Question: And the “MIC K. pneumoniae CCUG-59348” value (Klebsiella pneumoniae; strain CCUG-59348)?
Answer: 2 micrograms/mL

Question: And the “MIC A. baumannii ATCC BAA-747” value (Acinetobacter baumannii; strain ATCC BAA-747)?
Answer: ≤0.06 micrograms/mL

Question: What about the “MIC A. baumannii CCUG57249” value (Acinetobacter baumannii; strain CCUG57249) of the same compound?
Answer: ≤0.06 micrograms/mL

Question: And the “MIC A. baumannii NCTC 13423” value (Acinetobacter baumannii; strain NCTC 13423)?
Answer: ≤0.06 micrograms/mL

Question: What about the “MIC A. baumannii NCTC 13424” value (Acinetobacter baumannii; strain NCTC 13424) of the same compound?
Answer: ≤0.06 micrograms/mL

Question: What about the “MIC P. aeruginosa ATCC 27853” value (Pseudomonas aeruginosa; strain ATCC 27853) of the same compound?
Answer: 0.125 micrograms/mL

Question: And the “MIC P. aeruginosa ATCC CRM-9027” value (Pseudomonas aeruginosa; strain ATCC CRM-9027)?
Answer: 0.25 micrograms/mL

Question: What about the “MIC P. aeruginosa ATCC-47” value (Pseudomonas aeruginosa; strain ATCC-47) of the same compound?
Answer: ≤0.06 micrograms/mL

Question: And the “MIC P. aeruginosa CCUG 59626” value (Pseudomonas aeruginosa; strain CCUG 59626)?
Answer: 0.125 micrograms/mL

Question: What about the “log reduction in bacterial counts compared to non-treated control” value (P. aeruginosa ATCC27853) of the same compound?
Answer: 2.73 log

Question: Which MIC (K. pneumoniae; Klebsiella pneumoniae, read-out: MIC Klebsiella pneumoniae (n = 11), agent alone) does the source give for `CO[C@H]1/C=C/O[C@@]2(C)Oc3c(C)c(O)c4c(O)c(c(/C=N/N5CCN(C)CC5)c(O)c4c3C2=O)NC(=O)/C(C)=C\C=C\[C@H](C)[C@H](O)[C@@H](C)[C@@H](O)[C@@H](C)[C@H](OC(C)=O)[C@@H]1C` [Rifampicin, reference compound] here?
Answer: 16 µg/mL (≈ 19.4 µM)

Question: And the “MIC Klebsiella pneumoniae (n = 11)” value (K. pneumoniae; agent alone)?
Answer: 32 micrograms/mL and > 32 micrograms/mL and >32, 32, 32, micrograms/mL and 32, 32, >32, micrograms/mL and >32, >32 micrograms/mL

Question: What about the MIC (Escherichia coli; strain ATCC25922, read-out: MIC E. coli ATCC25922) of the same compound?
Answer: 4 µg/mL

Question: And the MIC (Escherichia coli; strain NCTC9001, read-out: MIC E. coli NCTC9001)?
Answer: 4 µg/mL

Question: And the MIC (Klebsiella pneumoniae; ATCC4352, strain ATCC 4352, read-out: MIC K. pneumoniae ATCC 4352)?
Answer: 8 µg/mL

Question: What about the MIC (Klebsiella pneumoniae; ATCCBAA2146, strain ATCC-BAA-2146, read-out: MIC K. pneumoniae ATCC-BAA-2146) of the same compound?
Answer: 16 µg/mL

Question: What about the MIC (Klebsiella pneumoniae; CCUG59348, strain CCUG-59348, read-out: MIC K. pneumoniae CCUG-59348) of the same compound?
Answer: 32 µg/mL

Question: What about the MIC (Klebsiella pneumoniae; NCTC13438, strain NCTC 13438, read-out: MIC K. pneumoniae NCTC 13438) of the same compound?
Answer: 16 µg/mL

Question: And the MIC (Acinetobacter baumannii; ATCCBAA747, strain ATCC BAA-747, read-out: MIC A. baumannii ATCC BAA-747)?
Answer: 2 µg/mL

Question: And the MIC (Acinetobacter baumannii; NCTC13423, strain NCTC 13423, read-out: MIC A. baumannii NCTC 13423)?
Answer: 1 µg/mL

Question: What about the MIC (Acinetobacter baumannii; NCTC13424, strain NCTC 13424, read-out: MIC A. baumannii NCTC 13424) of the same compound?
Answer: 1 µg/mL

Question: And the MIC (Acinetobacter baumannii; strain CCUG57249, read-out: MIC A. baumannii CCUG57249)?
Answer: 2 µg/mL

Question: What about the MIC (Pseudomonas aeruginosa; ATCC47, strain ATCC-47, read-out: MIC P. aeruginosa ATCC-47) of the same compound?
Answer: 16 µg/mL

Question: What about the MIC (Pseudomonas aeruginosa; ATCC27853, strain ATCC 27853, read-out: MIC P. aeruginosa ATCC 27853) of the same compound?
Answer: 16 µg/mL

Question: And the MIC (Pseudomonas aeruginosa; CCUG59626, strain CCUG 59626, read-out: MIC P. aeruginosa CCUG 59626)?
Answer: 16 µg/mL

Question: What about the MIC (Pseudomonas aeruginosa; strain ATCC CRM-9027, read-out: MIC P. aeruginosa ATCC CRM-9027) of the same compound?
Answer: 16 µg/mL

Question: What about the MIC (P. aeruginosa; Pseudomonas aeruginosa, read-out: MIC Pseudomonas aeruginosa (n = 6), agent alone) of the same compound?
Answer: 32 µg/mL (≈ 38.9 µM)

Question: And the “MIC Pseudomonas aeruginosa (n = 6)” value (P. aeruginosa; agent alone)?
Answer: 16 micrograms/mL and 32, 32, 32 micrograms/mL

— patent US10407467B2, “Polymyxin derivatives and their use in combination therapy together with different antibiotics” (priority 2013, dated 2019)
